Our source for the inhibition and Activity values is ChEMBL document CHEMBL1138414, “Discovery of galectin ligands in fully randomized combinatorial one-bead-one-compound (glyco)peptide libraries” (2007).

Activity calls are given as the source filed them. The calls are words filed in the database; no cut-off is given here. Non-standard residues stand in square brackets, D forms with d. Residues, ends and D or L forms follow the SMILES beside them. *: point of attachment. X1 = OC[C@H]1O[C@@H](O[C@H]2[C@H](O)[C@@H](O)[C@@H](*)O[C@@H]2CO)[C@H](O)[C@@H](O)[C@H]1O; βGal = OC[C@H]1O[C@@H](*)[C@H](O)[C@@H](O)[C@H]1O; X2 = OC[C@H]1O[C@@H](N*)[C@H](O)[C@@H](O)[C@H]1O; Cha = N[C@@H](CC1CCCCC1)C(=O)O

Assay [1] has as its target Galectin-1 (Homo sapiens) (UniProt P09382). The experiment in a line: Inhibition of carbohydrate-dependent human galectin1 binding at 10 mM by solid phase assay.
For another assay, the system named is CAPAN-1. As to the kind of experiment: Inhibition of carbohydrate-dependent galectin1 binding to human Capan1 cell surface at 2mM. Also on record: scale not given: the % may be the effect or the level left. The class given is functional.
The target of assay [2] is Galectin-3 (Homo sapiens) (UniProt P17931). As to the kind of experiment: Inhibition of carbohydrate-dependent human galectin3 binding at 10 mM by solid phase assay.
Sequence of Galectin-3 (Homo sapiens) (P17931 whole entry): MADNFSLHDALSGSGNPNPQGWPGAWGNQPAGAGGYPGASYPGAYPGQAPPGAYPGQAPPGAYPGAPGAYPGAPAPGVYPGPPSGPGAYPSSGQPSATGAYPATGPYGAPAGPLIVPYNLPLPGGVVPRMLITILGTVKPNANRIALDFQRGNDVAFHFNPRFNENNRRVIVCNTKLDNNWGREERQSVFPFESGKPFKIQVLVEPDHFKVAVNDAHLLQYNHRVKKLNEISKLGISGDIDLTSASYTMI
Assay [3] relates to SW480. The experiment in a line: Inhibition of carbohydrate-dependent galectin3 binding to human SW480 cell surface at 1mM. The class given is functional. Also on record: scale not given: the % may be the effect or the level left.
For assay [4], the system named is SW480. As to the kind of experiment: Inhibition of carbohydrate-dependent galectin3 binding to human SW480 cell surface at 0.5mM. The class given is functional, cell-based. On the set-up: scale not given: the % may be the effect or the level left.
In assay [5] the test system is SW480. As to the kind of experiment: Inhibition of carbohydrate-dependent galectin3 binding to human SW480 cell surface at 5 mM. Format: functional, cell-based. On the set-up: scale not given: the % may be the effect or the level left.
Assay [6] has as its system SW480. The experiment in a line: Inhibition of carbohydrate-dependent galectin3 binding to human SW480 cell surface at 2mM. Format: functional, cell-based. On the set-up: scale not given: the % may be the effect or the level left.

Sequence of Galectin-1 (Homo sapiens) (P09382 whole entry): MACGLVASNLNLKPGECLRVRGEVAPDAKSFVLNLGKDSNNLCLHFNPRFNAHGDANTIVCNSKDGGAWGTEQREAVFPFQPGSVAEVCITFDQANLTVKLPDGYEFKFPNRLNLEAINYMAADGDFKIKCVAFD

With `CC[C@H](C)[C@H](NC(=O)[C@@H](NC(=O)[C@H](CCCNC(=N)N)NC(=O)[C@H](CCCNC(=N)N)NC(=O)[C@H](Cc1ccc(O)cc1)NC(=O)[C@H](C)N)[C@@H](C)O[C@H]1O[C@H](CO)[C@@H](O[C@@H]2O[C@H](CO)[C@H](O)[C@H](O)[C@H]2O)[C@H](O)[C@H]1O)C(=O)O` (H-AYRRT(X1)I-OH), the inhibition result in assay [1] was “inactive”. Same read-out and setting: in the case of `C[C@@H](O)[C@H](NC(=O)[C@H](Cc1ccc(O)cc1)NC(=O)[C@H](CC1CCCCC1)NC(=O)[C@H](Cc1cnc[nH]1)NC(=O)[C@H](CC1CCCCC1)NC(=O)[C@@H](N)Cc1ccc(O)cc1)C(=O)O` it was 9%; in that of `CC[C@H](C)[C@H](NC(=O)[C@@H](NC(=O)[C@@H](N)CC1CCCCC1)C(C)C)C(=O)N[C@@H](CC(=O)N[C@@H]1O[C@H](CO)[C@H](O)[C@H](O)[C@H]1O)C(=O)N[C@@H](Cc1ccc(O)cc1)C(=O)N[C@@H](CCC(N)=O)C(=O)O` (H-[Cha]VID(X2)YQ-OH), “inactive”. Same read-out and setting: with `CC[C@H](C)[C@H](NC(=O)[C@@H](NC(=O)[C@@H]1CCCN1)[C@@H](C)O)C(=O)N[C@@H](Cc1ccccc1)C(=O)N[C@@H](Cc1ccccc1)C(=O)N[C@@H](Cc1ccccc1)C(=O)O` (H-PTIFFF-OH) the entry was “inactive”.

`CC[C@H](C)[C@H](NC(=O)[C@H](Cc1ccccc1)NC(=O)[C@@H]1CCCN1)C(=O)N[C@@H](CC1CCCCC1)C(=O)N[C@@H](Cc1ccccc1)C(=O)N[C@@H](CCC(N)=O)C(=O)O`: in assay [1], the inhibition came out at 14%.

As to `CSCC[C@H](N)C(=O)N[C@@H](Cc1ccccc1)C(=O)N[C@H](C(=O)N[C@@H](CC1CCCCC1)C(=O)N[C@@H](CC1CCCCC1)C(=O)N[C@@H](CCCNC(=N)N)C(=O)O)C(C)C` (H-MFV[Cha][Cha]R-OH), the inhibition in assay [1] worked out at 22%.

For `CSCC[C@H](NC(=O)[C@@H](N)[C@@H](C)O[C@H]1O[C@H](CO)[C@@H](O[C@@H]2O[C@H](CO)[C@H](O)[C@H](O)[C@H]2O)[C@H](O)[C@H]1O)C(=O)N[C@@H](CCCNC(=N)N)C(=O)N[C@@H](C)C(=O)N[C@H](C(=O)N[C@@H](CC1CCCCC1)C(=O)O)[C@@H](C)O[C@H]1O[C@H](CO)[C@@H](O[C@@H]2O[C@H](CO)[C@H](O)[C@H](O)[C@H]2O)[C@H](O)[C@H]1O`, the Activity in the assay on CAPAN-1 was determined as 22%. The compound further registered an inhibition in assay [1] of 38%. For `CC[C@H](C)[C@H](NC(=O)[C@@H](NC(=O)[C@H](CCCNC(=N)N)NC(=O)[C@@H]1CCCN1C(=O)[C@H](CCCNC(=N)N)NC(=O)[C@@H](N)Cc1ccccc1)[C@@H](C)O[C@H]1O[C@H](CO)[C@@H](O[C@@H]2O[C@H](CO)[C@H](O)[C@H](O)[C@H]2O)[C@H](O)[C@H]1O)C(=O)O` (H-FRPRT(X1)I-OH), in that order: 12% and 3%. In the case of `CSCC[C@H](N)C(=O)N[C@@H](CCCNC(=N)N)C(=O)N[C@H](C(=O)N[C@@H](CCCNC(=N)N)C(=O)N[C@H](C(=O)N[C@@H](CCCNC(=N)N)C(=O)O)[C@@H](C)O[C@H]1O[C@H](CO)[C@@H](O[C@@H]2O[C@H](CO)[C@H](O)[C@H](O)[C@H]2O)[C@H](O)[C@H]1O)[C@@H](C)O[C@H]1O[C@H](CO)[C@@H](O[C@@H]2O[C@H](CO)[C@H](O)[C@H](O)[C@H]2O)[C@H](O)[C@H]1O`, the inhibition result in assay [2] was “inactive”. On to LACTOSE, ANHYDROUS, for which the Activity came out at 44% with SW480 [3], 43% with SW480 [4], 10% in the assay on SW480 [5] and 24% in the assay with SW480 [6]. Also, the inhibition in assay [1] amounted to 54%; in assay [2] it was 44%.

Consider `O=C(O)[C@H](Cc1ccccc1)NC(=O)[C@H](Cc1ccccc1)NC(=O)[C@H](Cc1ccccc1)NC(=O)[C@H](Cc1ccccc1)NC(=O)[C@H](Cc1ccccc1)NC(=O)[C@@H]1CCCN1` (H-PFFFFF-OH), for which the inhibition in assay [2] was 76%. Compound `CC[C@H](C)[C@H](NC(=O)[C@H](CCCNC(=N)N)NC(=O)[C@@H](NC(=O)[C@H](Cc1ccccc1)NC(=O)[C@@H](NC(=O)[C@@H](N)CC(N)=O)[C@@H](C)O[C@H]1O[C@H](CO)[C@@H](O[C@@H]2O[C@H](CO)[C@H](O)[C@H](O)[C@H]2O)[C@H](O)[C@H]1O)C(C)C)C(=O)O` (H-NT(X1)FVRI-OH) yielded an Activity with SW480 [3] of 40%. This compound also had an inhibition in assay [2] of 44%. `CC[C@H](C)[C@H](NC(=O)[C@@H](N)[C@@H](C)O[C@@H]1O[C@H](CO)[C@H](O)[C@H](O)[C@H]1O)C(=O)N[C@H](C(=O)N[C@@H](CCC(N)=O)C(=O)N[C@@H](CC1CCCCC1)C(=O)N[C@@H](Cc1ccc(O)cc1)C(=O)O)[C@@H](C)CC` (H-T(βGal)IIQ[Cha]Y-OH) returned an Activity in the assay with SW480 [3] of 77%. Further, the inhibition entry in assay [1] is “inactive”. For the compound `CC(C)[C@H](NC(=O)[C@H](CC1CCCCC1)NC(=O)[C@H](CC(N)=O)NC(=O)[C@H](CC1CCCCC1)NC(=O)[C@@H]1CCCN1)C(=O)N[C@@H](Cc1ccc(O)cc1)C(=O)O` (H-P[Cha]N[Cha]VY-OH), in assay [1], the inhibition is 67%. Consider `CC[C@H](C)[C@H](NC(=O)[C@H](Cc1ccccc1)NC(=O)[C@H](CCCNC(=N)N)NC(=O)[C@H](CCCNC(=N)N)NC(=O)[C@H](CC1CCCCC1)NC(=O)[C@@H](N)[C@@H](C)O[C@H]1O[C@H](CO)[C@@H](O[C@@H]2O[C@H](CO)[C@H](O)[C@H](O)[C@H]2O)[C@H](O)[C@H]1O)C(=O)O` (H-T(X1)[Cha]RRFI-OH), for which, in the assay with SW480 [3], the Activity came out at 34%. Besides, the inhibition entry in assay [1] is “inactive”.

`CC(C)[C@H](NC(=O)[C@H](Cc1cnc[nH]1)NC(=O)[C@@H](N)Cc1cnc[nH]1)C(=O)N[C@@H](Cc1ccc(O)cc1)C(=O)N[C@@H](Cc1ccc(O)cc1)C(=O)N[C@@H](Cc1cnc[nH]1)C(=O)O` (H-HHVYYH-OH): in assay [2], the inhibition result was “inactive”.

As for `CSCC[C@H](NC(=O)[C@@H]1CCCN1C(=O)[C@H](CCCNC(=N)N)NC(=O)[C@H](CC1CCCCC1)NC(=O)[C@@H](N)CC1CCCCC1)C(=O)N[C@@H](CCCNC(=N)N)C(=O)O` (H-[Cha][Cha]RPMR-OH), the inhibition in assay [2] was determined as 28%.

Compound `C[C@H](NC(=O)[C@@H](N)CO)C(=O)N[C@@H](CO)C(=O)N[C@@H](CO)C(=O)N[C@H](C(=O)N[C@@H](CCCNC(=N)N)C(=O)O)[C@@H](C)O[C@H]1O[C@H](CO)[C@@H](O[C@@H]2O[C@H](CO)[C@H](O)[C@H](O)[C@H]2O)[C@H](O)[C@H]1O` (H-SASST(X1)R-OH) gave an inhibition in assay [1] of 22%. Same read-out and setting: in the case of `CC[C@H](C)[C@H](NC(=O)[C@H](Cc1ccccc1)NC(=O)[C@@H](NC(=O)CN)C(C)C)C(=O)N[C@@H](CC1CCCCC1)C(=O)N[C@@H](C)C(=O)O` (H-GVFI[Cha]A-OH) it was “inactive”. The compound `C[C@H](NC(=O)[C@@H](N)[C@@H](C)O[C@H]1O[C@H](CO)[C@@H](O[C@@H]2O[C@H](CO)[C@H](O)[C@H](O)[C@H]2O)[C@H](O)[C@H]1O)C(=O)N[C@@H](CC(N)=O)C(=O)N[C@@H](Cc1ccc(O)cc1)C(=O)N[C@H](C(=O)N[C@@H](CCCNC(=N)N)C(=O)O)[C@@H](C)O[C@H]1O[C@H](CO)[C@@H](O[C@@H]2O[C@H](CO)[C@H](O)[C@H](O)[C@H]2O)[C@H](O)[C@H]1O` gave an inhibition in assay [2] of 15%. `CC(C)[C@H](NC(=O)[C@@H](N)CCCNC(=N)N)C(=O)N[C@@H](Cc1cnc[nH]1)C(=O)N[C@@H](Cc1ccc(O)cc1)C(=O)N[C@H](C(=O)N[C@@H](CCCNC(=N)N)C(=O)O)[C@@H](C)O[C@H]1O[C@H](CO)[C@@H](O[C@@H]2O[C@H](CO)[C@H](O)[C@H](O)[C@H]2O)[C@H](O)[C@H]1O` (H-RVHYT(X1)R-OH) came in with an Activity in the assay with SW480 [3] of 35%. Besides, the inhibition entry in assay [2] was “inactive”.

The compound `OC[C@H]1O[C@@H](O)[C@H](O)[C@@H](O)[C@H]1O` yielded an inhibition in assay [1] of 17%. For the same compound, the inhibition result in assay [2] was “inactive”.

As for `CC(C)[C@H](NC(=O)[C@@H](NC(=O)[C@@H]1CCCN1)[C@@H](C)O[C@H]1O[C@H](CO)[C@@H](O[C@@H]2O[C@H](CO)[C@H](O)[C@H](O)[C@H]2O)[C@H](O)[C@H]1O)C(=O)N[C@@H](C)C(=O)N1CCC[C@H]1C(=O)N[C@@H](CCCNC(=N)N)C(=O)O` (H-PT(X1)VAPR-OH), the inhibition entry in assay [2] was “inactive”.

`CC[C@H](C)[C@H](NC(=O)[C@H](Cc1ccccc1)NC(=O)[C@H](Cc1ccccc1)NC(=O)[C@@H]1CCCN1)C(=O)N[C@@H](CO)C(=O)N[C@@H](CCCNC(=N)N)C(=O)O` (H-PFFISR-OH) came in with an Activity in the assay on SW480 [3] of 63%. Further, the inhibition in assay [1] was determined as 9%. Take `CC[C@H](C)[C@H](N)C(=O)N[C@@H](Cc1ccccc1)C(=O)N[C@@H](CCCNC(=N)N)C(=O)N[C@@H](CC1CCCCC1)C(=O)N[C@@H](CCCNC(=N)N)C(=O)N[C@@H](Cc1ccc(O)cc1)C(=O)O` (H-IFR[Cha]RY-OH): the inhibition in assay [1] is 70%. Still for that read-out and setting: in the case of `CC[C@H](C)[C@H](NC(=O)[C@@H]1CCCN1)C(=O)N[C@@H](Cc1ccccc1)C(=O)N[C@H](C(=O)N[C@@H](CCCNC(=N)N)C(=O)N[C@@H](CCCNC(=N)N)C(=O)O)[C@@H](C)O[C@H]1O[C@H](CO)[C@@H](O[C@@H]2O[C@H](CO)[C@H](O)[C@H](O)[C@H]2O)[C@H](O)[C@H]1O` (H-PIFT(X1)RR-OH) it was “inactive”.
